Measurements as given in patent US12209080B2, “Polymorphic forms of kinase inhibitor compound, pharmaceutical composition containing same, preparation method therefor and use thereof” (EQUINOX SCIENCES, LLC, priority 2016, dated 2025).
≈ marks a conversion by molar mass, not a printed value.

Key:
[1] = Stability of crystalline form 1 in aqueous methanol (XRPD detection); format: physicochemical
Description: The stability of the crystalline form 1 in aqueous methanol solution at different temperature and for different time is as follows.

[2] = Solubility of crystalline forms 1 and 2 in various media; format: physicochemical
Description: The moisture content, solubility and dissolution rate of the crystalline forms 1 and 2 were detected using the methods described above. The results are shown in Table 21, which indicate that the solubility, dissolution, and moisture content (total pharmaceutical properties) of the crystalline form 1 are higher than that of the crystalline form 2. Moreover, the crystalline forms 1 and 2 have the highest solubility in methanol.

With `Cc1[nH]c(/C=C2\C(=O)Nc3ccc(F)cc32)c(C)c1C(=O)N[C@H]1CCN(C(=O)N(C)C)C1` [crystalline form 1, 5-[5-fluoro-2-oxo-1,2-dihydro-indole-(3Z)-ylidenemethyl]-2,4-dimethyl-1H-pyrrole-3-carboxylic acid ((S)-1-dimethylcarbamoyl-pyrrolidin-3-yl)-amide] the XRPD detection ([1]; 2.0 g in 50 mL methanol, moisture (KF) 0.1%, 20-30° C., 2 hrs) was “form 1”, the XRPD detection ([1]; 2.0 g in 50 mL methanol, moisture (KF) 0.1%, 20-30° C., 4 hrs) was “form 1” and the XRPD detection ([1]; 2.0 g in 50 mL methanol, moisture (KF) 0.1%, 20-30° C., 8 hrs) was “form 1”. The XRPD detection ([1]; 2.0 g in 50 mL methanol, moisture (KF) 0.1%, 20-30° C., 21 hrs) was “form 1”, the XRPD detection ([1]; 2.0 g in 50 mL methanol, moisture (KF) 5.2%, 20-30° C., 2 hrs) was “form 1” and the XRPD detection ([1]; 2.0 g in 50 mL methanol, moisture (KF) 5.2%, 20-30° C., 4 hrs) was “form 1”. For the same compound, the XRPD detection ([1]; 2.0 g in 50 mL methanol, moisture (KF) 5.2%, 20-30° C., 8 hrs) was “form 1”, the XRPD detection ([1]; 2.0 g in 50 mL methanol, moisture (KF) 5.2%, 20-30° C., 21 hrs) was “form 1” and the XRPD detection ([1]; 2.0 g in 50 mL methanol, moisture (KF) 10%, 20-30° C., 2 hrs) was “form 1”. For the same compound, the XRPD detection ([1]; 2.0 g in 50 mL methanol, moisture (KF) 10%, 20-30° C., 4 hrs) was “form 1”, the XRPD detection ([1]; 2.0 g in 50 mL methanol, moisture (KF) 10%, 20-30° C., 8 hrs) was “form 1” and the XRPD detection ([1]; 2.0 g in 50 mL methanol, moisture (KF) 10%, 20-30° C., 21 hrs) was “form 1”. For the same compound, the XRPD detection ([1]; 5.0 g in 50 mL methanol, moisture (KF) 0.1%, reflux, 2 hrs) was “form 1”, the XRPD detection ([1]; 5.0 g in 50 mL methanol, moisture (KF) 0.1%, reflux, 4 hrs) was “form 1” and the XRPD detection ([1]; 5.0 g in 50 mL methanol, moisture (KF) 0.1%, reflux, 8 hrs) was “form 2”. For the same compound, the XRPD detection ([1]; 5.0 g in 50 mL methanol, moisture (KF) 0.1%, reflux, 21 hrs) was “form 2”, the XRPD detection ([1]; 5.0 g in 50 mL methanol, moisture (KF) 5.2%, reflux, 2 hrs) was “form 1” and the XRPD detection ([1]; 5.0 g in 50 mL methanol, moisture (KF) 5.2%, reflux, 4 hrs) was “form 1 + form 2”. For the same compound, the XRPD detection ([1]; 5.0 g in 50 mL methanol, moisture (KF) 5.2%, reflux, 8 hrs) was “form 2”, the XRPD detection ([1]; 5.0 g in 50 mL methanol, moisture (KF) 5.2%, reflux, 21 hrs) was “form 2” and the XRPD detection ([1]; 5.0 g in 50 mL methanol, moisture (KF) 10%, reflux, 2 hrs) was “form 1”. For the same compound, the XRPD detection ([1]; 5.0 g in 50 mL methanol, moisture (KF) 10%, reflux, 4 hrs) was “form 2”, the XRPD detection ([1]; 5.0 g in 50 mL methanol, moisture (KF) 10%, reflux, 8 hrs) was “form 2” and the XRPD detection ([1]; 5.0 g in 50 mL methanol, moisture (KF) 10%, reflux, 21 hrs) was “form 2”. For the same compound, the Solubility ([2]; 1% Tween 80) was 60 µg/mL (≈ 137 µM), the Solubility ([2]; 1% sodium lauryl sulfate) was 3480 µg/mL (≈ 7920 µM) and the Solubility ([2]; 2% sodium lauryl sulfate) was 3790 µg/mL (≈ 8620 µM). The Solubility ([2]; PEG 400) was 3660 µg/mL (≈ 8330 µM), the Solubility ([2]; acetonitrile) was 680 µg/mL (≈ 1550 µM) and the Solubility ([2]; aqueous solution with pH of 1.0-7.5) was 0.12 to 0.53 µg/mL. It also gave a solubility at 4 h ([2]; artificial gastric juice, simulated gastric fluid, thermodynamic from solid, second line of this heading (Table 21 r21)) of 0.43 µg/mL (≈ 0.978 µM), a Solubility ([2]; ethanol) of 2460 µg/mL (≈ 5600 µM) and a Solubility ([2]; glycerin) of 570 µg/mL (≈ 1300 µM). The Solubility ([2]; methanol) was 8170 µg/mL (≈ 18600 µM).
